Here are results for seven compounds from patent publication US20130065914A1, “HALOGEN OR CYANO SUBSTITUTED THIENO [2,3-D]PYRIMIDINES HAVING MNK1/MNK2 INHIBITING ACTIVITY FOR PHARMACEUTICAL COMPOSITIONS” (BOEHRINGER INGELHEIM INTERNATIONAL GMBH, priority 2010, published 2013).

Counter-ions that a name gives are not always drawn.

In the first assay the target is T1, human Mnk2a (Homo sapiens, UniProt Q9HBH9).
T1 construct: the open reading frames of human Mnk1 and Mnk2a were amplified from cDNA; made in house; host or cells: E. coli BL21
T1 sequence (Q9HBH9 whole entry): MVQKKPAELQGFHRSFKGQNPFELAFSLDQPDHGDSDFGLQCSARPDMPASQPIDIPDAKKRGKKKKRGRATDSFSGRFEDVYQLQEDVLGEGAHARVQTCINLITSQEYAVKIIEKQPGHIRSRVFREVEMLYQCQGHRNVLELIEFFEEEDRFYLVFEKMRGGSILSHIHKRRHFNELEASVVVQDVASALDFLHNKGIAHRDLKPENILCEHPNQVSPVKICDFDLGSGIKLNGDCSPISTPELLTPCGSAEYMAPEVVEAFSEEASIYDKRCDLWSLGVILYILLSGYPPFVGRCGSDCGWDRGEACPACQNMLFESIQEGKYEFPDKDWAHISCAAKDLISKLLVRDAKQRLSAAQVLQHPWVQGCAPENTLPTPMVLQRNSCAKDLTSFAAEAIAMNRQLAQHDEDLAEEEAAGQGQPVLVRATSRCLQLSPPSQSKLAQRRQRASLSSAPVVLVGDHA
Kind of assay: Mnk2a in vitro kinase assay (indirect fluorescence polarization). Format: biochemical. Conditions: assay of example 2a; 20 μM ATP, 2.5 nM pre-activated Mnk2a; read-out: MNK2 Inhibition (IC50). Here is the method: Assay principle: Inhibitory potency of compounds against Mnk1, Mnk2a and other kinases was assessed with assays based on a format known to those skilled in the art as the indirect (competitive) fluorescence polarization. The assay detection system comprises a small fluorophore-labeled phospho-peptide (termed ligand) bound to a phospho-specific antibody. The product generated by the kinase reaction competes with the ligand for antibody binding. Based on the larger molecular volume of the bound ligand, which results in a lower rotation rate in solution, its emitted light has a higher degree of polarization than the one from the free ligand.
As a source of enzyme, human Mnk1 and human Mnk2a were expressed as GST fusion proteins in E. coli, purified to >80% homogeneity by glutathione affinity chromatography and activated in vitro with pre-activated ERK2. In brief, the open reading frames of human Mnk1 and Mnk2a were amplified from cDNA using the forward/reverse primer pairs
(utilized restriction sites underlined), respectively, and cloned into the BamHI and SalI sites of the vector pGEX-4T1 (Amersham, Sweden, cat. no. 27-4580-01). These constructs allow prokaryotic expression of Mnk1 or Mnk2a as fusion protein with a N-terminal glutathione S-transferase (GST) tag, referred to as GST-Mnk1 or GST-Mnk2a. The following expression and purification procedure was identical for GST-Mnk1 and GST-Mnk2a, referring in general to GST-Mnk, when not distinguishing between the two isoforms. Expression of GST-Mnk was in E. coli BL21 (Merck Biosciences, Germany, cat. no. 69449). Cells were grown in LB-Bouillon (Merck, Germany, cat. no. 1.10285) supplemented with 100 μg/ml ampicillin (Sigma, Germany, cat. no. A9518) at 37° C. When the culture had reached a density corresponding to an A600 of 0.8, an equal volume of ice cold LB/ampicillin was added, the culture transferred to 25° C. and induced for 4 h with 1 mM isopropyl thiogalactoside (IPTG, Roth, Germany, cat. no. 2316.4). Cells harvested by centrifugation were resuspended in 10 ml lysis buffer (50 mM tris(hydroxymethyl)aminomethane hydrochloride (Tris/HCl, Sigma, Germany, cat. no. T5941) pH 7.5, 300 mM sodium chloride (NaCl, Sigma, Germany, cat. no. S7653), 5% (w/v) glycerol (Sigma, Germany, cat. no. G5516), 3 mM DTT dithiotreitol (DTT, Sigma, Germany, cat. no. D9779)) per gram wet weight cell pellet. Lysates were prepared by disruption of cells with a sonifier and subsequent clearing by centrifugation at 38000 g for 45 min at 4° C.
The lysate was applied to a GSTPrep FF 16/10 column (Amersham, Sweden, cat. no. 17-5234-01) equilibrated with lysis buffer. Removal of unbound material was with 3 column volumes (CV) lysis buffer. Elution was with 2 CV of elution buffer (50 mM Tris/HCl pH 7.5, 300 mM NaCl, 5% (w/v) glycerol, 20 mM glutathione (Sigma, Germany, cat. no. G4251)). Peak fractions were pooled and the protein transferred into storage buffer (50 mM Tris/HCl pH 7.5, 200 mM NaCl, 0.1 mM ethylene glycol-bis(2-aminoethylether)-N,N,N′,N′-tetraacetic acid (EGTA, Aldrich, Germany, cat. no. 23, 453-2), 1 mM DTT, 10% (w/v) glycerol, 0.5 M sucrose (Sigma, Germany, cat. no. S0389) by gel filtration on a PD10 desalting column (Amersham, Sweden, cat. no. 17-0851-01). Aliquots were shock frozen in liquid nitrogen and stored at −80° C.
Activation of Mnk1 and Mnk2a was at a concentration of 2.5 μM of either purified GST-Mnk1 or GST-Mnk2a by incubation with 150 nM pre-activated NHis-ERK2 (see ERK2 assay for preparation) and 50 μM adenosine triphosphate (ATP, Sigma, cat. no. A2699) in a buffer comprising 20 mM N-(2-hydroxyethyl)piperazine-N′-(2-ethanesulfonic acid) (HEPES, Fluka, Germany, cat. no 54459)/potassium hydroxide (KOH, Roth, Germany, cat. no 6751.1) pH 7.4, 10 mM magnesium chloride (MgCl2, Sigma, Germany, cat. no. M2670), 0.25 mM DTT, 0.05% (w/v) polyoxyethylene 20 stearylether (Brij 78, Sigma, Germany, cat. no. P4019) (HMDB buffer) for 45 min at 30° C. […]
(In general: In fluorescence polarisation assays a small probe gives low polarisation when free and higher when bound to something large.)
A word on the IC50: it is the concentration that gives 50% inhibition. For `Cc1c(Br)sc2ncnc(Nc3ccc(F)cc3OC(C)CN)c12` (stereo not shown) [Example 8, [2-(2-Amino-1-methyl-ethoxy)-4-fluoro-phenyl]-(6-bromo-5-methyl-thieno[2,3-d]pyrimidin-4-yl)-amine], the IC50 came to 11 nM.
Still for that read-out and setting: with `Cc1c(Cl)sc2ncnc(Nc3ccc(F)cc3OC(C)CNS(C)(=O)=O)c12` (stereo not shown) [Example 15, N-{2-[2-(6-Chloro-5-methyl-thieno[2,3-d]pyrimidin-4-ylamino)-5-fluoro-phenoxy]-propyl}-methanesulfonamide] the figure was 9 nM; with `CCOc1cc(C(N)=O)ccc1Nc1ncnc2sc(Cl)c(C)c12` [Example 16.2, 4-(6-Chloro-5-methyl-thieno[2,3-d]pyrimidin-4-ylamino)-3-ethoxy-benzamide], 16 nM; with `Cc1c(Cl)sc2ncnc(Nc3ccc(F)cc3OC(C)CN)c12` (stereo not shown) [Example 13, [2-(2-Amino-1-methyl-ethoxy)-4-fluoro-phenyl]-(6-chloro-5-methyl-thieno[2,3-d]pyrimidin-4-yl)-amine trifluoroacetate], 10 nM.
The same measure, in the same setting: with `Cc1c(Br)sc2ncnc(Nc3ccc(F)cc3OC(C)CNS(C)(=O)=O)c12` (stereo not shown) [Example 10, N-{2-[2-(6-Bromo-5-methyl-thieno[2,3-d]pyrimidin-4-ylamino)-5-fluoro-phenoxy]-propyl}-methanesulfonamide] the figure was 8 nM; with `Cc1c(Br)sc2ncnc(Nc3ccc(F)cc3OC(C)C)c12` [Example 18, (6-Bromo-5-methyl-thieno[2,3-d]pyrimidin-4-yl)-(4-fluoro-2-isopropoxy-phenyl)-amine], 58 nM.

The subject of the next assay is Mnk2 (Mnk2a or Mnk2b) or Mnk1.
Experiment: not given
Conditions: cell culture cells transfected with Mnk2 (Mnk2a or Mnk2b) or Mnk1; cited from earlier work.
With `Nc1ncnc2n[nH]c(Nc3ccc(F)cc3)c12` [CGP57380], the “reduction of phosphorylated eIF4E” value is “strong reduction”.
